Laboratory results: patent publication US20240207422A1, “NERVE TARGETING PEPTIDE CONJUGATES AND METHODS OF USE” (Alume Biosciences, Inc., priority 2022, published 2024)

Tested on: excised human nerve tissue
Experiment: Phage display selection on excised human nerve tissue (Nerve2, Nerve3), NextGen sequence counts
Type: binding
Details: unique sequence count (relative enrichment)
Description: Several m13 phage libraries were constructed expressing randomized variants of a parent peptide (QVPWEEPYYVVKKS-SGGL; SEQ ID NO: 576). In particular, the first 14 amino acids of the parent peptide were randomized using degenerate oligonucleotide synthesis to obtain a diverse set of peptides with a mutation rate of about 50% per residue.
To accomplish this, synthesis was carried out by the XXK codon design approach, where X is any base and K is G or T. To bias synthesis towards the parent sequence, synthesis was carried out at each X position with a mixture of about 70%-85% of the parent nucleotide and 15-30% of the remaining 3 nucleotides. The resulting molecules were inserted into fADL-1e (Antibody Design Laboratories), which is a type 3 phage display vector having a cloning site on the N-terminal side of the full-length gene III protein. The fusion proteins are directed to the periplasm by the PelB leader peptide, which is inserted in the vector […].
Collectively, the phage display libraries used in the screens comprised about 600 million peptides, with sequencing analysis confirming a mutation rate of about 50% per residue.
Phage libraries were independently processed, as follows, with five biological samples: two independent samples of excised human nerve tissue, one sample of a human nerve extract, and two independent samples of human muscle tissue, as follows:
Excised Human Nerve Tissue: For each of the two independent samples, phage were processed through multiple cycles of selection, with representative phage being isolated and sequenced after each selection cycle. Specifically, for selection using human nerve tissue, a sample of […] tissue (2 mm by 2 mm) was washed prior to mixing and incubation with a phage library. After incubation, the mixture (containing mostly intact nerves with phage particles that had variable affinity for nerves) was centrifuged and the nerve pellet washed multiple times with PBS to remove phage with little or no affinity for nerve tissue. The pellet was homogenized and plated for titering and reamplification. Phage that were bound at each round were sequenced. NextGen sequencing of pools after 2, 3 and 4 rounds of selection were used to isolate candidate sequences that were further analyzed using bioinformatics.
NextGen sequencing of pools after 2, 3 and 4 rounds of selection were used to isolate candidate sequences from each of the five samples. These five data sets were then analyzed as described in the next section.
Peptide and vector sequences were translated starting at the first start codon in the nucleotide sequence. […] Trimmed peptides with identical sequences were combined and quantified according to their frequency (count).
Following processing, an R script was written to merge the unique peptide sequences (with counts 6 or greater) from the 5 different data sets to analyze the overlap between nerve and muscle binding activity.
For the single Nerve2, Nerve3, and Plated Nerve2 (pn2) subsets, the number of counts for each group was set at a threshold giving rise to at least 100 peptides. […] As highlighted in yellow in FIG. 1B, the representative group also included 6 unique peptides overlapping between nerve2 and nerve3, 200 unique peptides overlapping between nerve2 and plated nerve2 (at least 60 counts), 4 unique peptides overlapping between nerve3 and plated nerve2. Finally, as highlighted in green in FIG. 1B, the representative group also included […] common to the nerve2, nerve3, and plated nerve2 sets.

[1] = peptides overlapping between Nerve2 and Plated Nerve2
[2] = peptides common to Nerve2, Nerve3 and Plated Nerve 2 sets
[3] = peptides overlapping between Nerve3 and Plated Nerve 2
[4] = peptides overlapping between Nerve2 and Nerve3

45 (QVPTGEPLYPVQKT) [compound 45]
Count [1]: 323

10 (YLTWEEPEHVNKQS) [compound 10]
Count [2]: 272

107 (HVGWEQPYYVLRKS) [compound 107]
Count [1]: 112

170 (HVPRDEPQSFVHRS) [compound 170]
Count [1]: 77

285 (DVLGIERYYAVKDP) [compound 285]
Count (Nerve2 only): 11

142 (HVTWQQTKYVTNRS) [compound 142]
Count [1]: 89

40 (HVSMDERYYVVKKT) [compound 40]
Count [3]: 17

139 (DVPLEDTYYRVKKY) [compound 139]
Count [1]: 91

28 (HVHWDATYYAVTNS) [compound 28]
Count [2]: 77

220 (QVPCEEPWCLVKVN) [compound 220]
Count [1]: 65

181 (VVPSQGTYHVGMTS) [compound 181]
Count [1]: 75

349 (YVPVEGIQHVVEKS) [compound 349]
Count (Nerve2 only): 10

127 (QFRIEDSYDVANQS) [compound 127]
Count [1]: 102

444 (QLLRNLSYDGAKYS) [compound 444]
Count (Nerve3 only): 82

387 (QILRVHPDYVVVNP) [compound 387]
Count (Nerve3 only): 231

5 (HVAFEQPDNVLVLY) [compound 5]
Count [2]: 357

182 (AVAWERPYYVVNHS) [compound 182]
Count [1]: 74

233 (HVSSEYPYYVVKHT) [compound 233]
Count [1]: 62

406 (QVPWEKPVSFVQKS) [compound 406]
Count (Nerve3 only): 159

169 (HLPWEGPEYLGKKS) [compound 169]
Count [1]: 77

43 (QLPMGGPYERVNNT) [compound 43]
Count [1]: 380

408 (WLHWEQPYWTVKKS) [compound 408]
Count (Nerve3 only): 143

280 (QNPGKSPYYVVHKS) [compound 280]
Count (Nerve2 only): 12

38 (QVQCKEQYYGVTNC) [compound 38]
Count [3]: 195

18 (LRSTADAHYTLKKS) [compound 18]
Count [2]: 152

374 (QGQTETHSHDAKRY) [compound 374]
Count (Nerve3 only): 270

306 (ESALKEPHQVLKHS) [compound 306]
Count (Nerve2 only): 10

273 (LFPLDETYYVAKVS) [compound 273]
Count (Nerve2 only): 12

159 (HVLGEEPYYFVQHV) [compound 159]
Count [1]: 80

294 (NVPWQVPYSVLKMP) [compound 294]
Count (Nerve2 only): 11

133 (HMRSEQPYYGGKVS) [compound 133]
Count [1]: 95

24 (HFSAYEQYYVLRNS) [compound 24]
Count [2]: 111

136 (HGRSVESYDLVNKR) [compound 136]
Count [1]: 94

34 (QLRYQEHYYLGYNS) [compound 34]
Count [4]: 56

14 (YNLWDAPSYLVKNS) [compound 14]
Count [2]: 201

321 (KLLTEAPYMFRTQA) [compound 321]
Count (Nerve2 only): 10

203 (RLPSEEPYTVAKRP) [compound 203]
Count [1]: 68

29 (QFPYDHKNYVVKYS) [compound 29]
Count [2]: 69

236 (QLPLAKPNSVVATS) [compound 236]
Count [1]: 61

73 (QLRSNEAYHVVKKS) [compound 73]
Count [1]: 166

417 (DLFVEEPYLGVIKF) [compound 417]
Count (Nerve3 only): 117

359 (HVAWQEPRYFVKKS) [compound 359]
Count (Nerve3 only): 359

33 (NLAWAESKFLLEKI) [compound 33]
Count [4]: 71

222 (YVKTVNPDSVLKIS) [compound 222]
Count [1]: 65

7 (QLPSEQPCCVVKKY) [compound 7]
Count [2]: 329

47 (QIPSQRPSSVGAIA) [compound 47]
Count [1]: 292

39 (QALYAEPAYVSKKF) [compound 39]
Count [3]: 19

412 (QVQWQVPYYVVKKP) [compound 412]
Count (Nerve3 only): 128

153 (RSTWEQSYTIVKES) [compound 153]
Count [1]: 83

445 (QLRVKLQYDVIANN) [compound 445]
Count (Nerve3 only): 81

93 (QPTWEQPYHVDRNS) [compound 93]
Count [1]: 131

117 (QFPLVQPNYLVEMP) [compound 117]
Count [1]: 108
